Data: PMC12749748, “Chemically-induced degradation of the endoplasmic-reticulum stress sensor IRE1 by a VHL-recruiting chimera” (Nature Communications, 2025)

How the values were obtained:
Format in all cases: cell-based
[1] = molecular target: T1, IRE1 E621A, E836A:VHL (Homo sapiens, UniProt O75460+P40337, E621A/E836A); experiment: NanoBRET IRE1:VHL interaction, IRE1 E621A, E836A, HEK293T cells
T1 construct: N2731; host or cells: HEK293T
Method: (§1) 8 × 10^5 293T cells per well were seeded in 6-well plates (Costar, #3516) and incubated at 37 °C, 5% CO2 for 6 h. A mixture of 0.2 µg ERN1 (IRE1)-NanoLuc Fusion Vector (Promega, NV1321), 2 µg HaloTag-VHL Fusion Vector (Promega, N2731), 6 µl FuGENE HD Transfection Reagent (Promega, E2311), and 100 µL Opti-MEM I reduced serum medium (Gibco, #31985062) per well was incubated at room temperature for 20 min before adding to cells. For expression of IRE1 mutants, site-directed mutagenesis was performed using the ERN1-NanoLuc Fusion Vector as the DNA template, and the transfection mixture was prepared in the same way as WT IRE1. After 18 h, cells from 6-well plates were trypsinized, resuspended in Opti-MEM I reduced serum medium, and reseeded into 96-well plates (Costar, #3917), with or without the addition of HaloTag NanoBRET 618 Ligand (Promega, G9801). After 18 h of incubation, a titration of G6374 (dilutions made in Opti-MEM I reduced serum medium) was added to the cells. After 2 h of G6374 treatment, NanoBRET Nano-Glo Substrate (Promega, N1571) was added to cells. The 96-well plates were imaged by GloMax Discover Microplate Reader (Promega, GM3000) with the default “BRET: NanoBRET 618” protocol (Donor: 450 BP; Acceptor: 600 LP; Integration: 0.3 s). Data analysis was performed according to the user manual.

[2] = tested on: OPM2 cells; experiment: Incucyte cell confluency, OPM2 cells; conditions: OPM2 shIRE1 cells, titration
Method: For non-adherent AMO1, KMS27, and OPM2 cells, cells were plated at 5000 cells/well in ultra-low attachment (ULA) 96-well plates (Costar, #7007) and centrifuged at 600 × g for 5 min for spheroid formation. For adherent U2OS and Colo201 cells, 2000 cells/well were seeded in a clear flat-bottom 96-well plate (Costar, #3595). Treatments were added at the time of cell seeding, and cells were cultured in complete RPMI media to a final volume of 200 µL/well. Cultures were maintained at 37 °C throughout the duration of the experiment. Cell confluency was tracked using the Incucyte live-cell imaging system (Sartorius S3). Picture frames were captured every 4 h with a 4× objective, and cell confluency (%) from the total well area as a function of time was calculated using the Incucyte software (version 2023 A Rev2).

[3] = molecular target: T2, PKD1 (Homo sapiens, UniProt Q15139); experiment: Immunoblot of PKD1 degradation in KMS27 cells; conditions: N=3
T2 construct: endogenous in cells; host or cells: KMS27
T2 sequence (Q15139 whole entry): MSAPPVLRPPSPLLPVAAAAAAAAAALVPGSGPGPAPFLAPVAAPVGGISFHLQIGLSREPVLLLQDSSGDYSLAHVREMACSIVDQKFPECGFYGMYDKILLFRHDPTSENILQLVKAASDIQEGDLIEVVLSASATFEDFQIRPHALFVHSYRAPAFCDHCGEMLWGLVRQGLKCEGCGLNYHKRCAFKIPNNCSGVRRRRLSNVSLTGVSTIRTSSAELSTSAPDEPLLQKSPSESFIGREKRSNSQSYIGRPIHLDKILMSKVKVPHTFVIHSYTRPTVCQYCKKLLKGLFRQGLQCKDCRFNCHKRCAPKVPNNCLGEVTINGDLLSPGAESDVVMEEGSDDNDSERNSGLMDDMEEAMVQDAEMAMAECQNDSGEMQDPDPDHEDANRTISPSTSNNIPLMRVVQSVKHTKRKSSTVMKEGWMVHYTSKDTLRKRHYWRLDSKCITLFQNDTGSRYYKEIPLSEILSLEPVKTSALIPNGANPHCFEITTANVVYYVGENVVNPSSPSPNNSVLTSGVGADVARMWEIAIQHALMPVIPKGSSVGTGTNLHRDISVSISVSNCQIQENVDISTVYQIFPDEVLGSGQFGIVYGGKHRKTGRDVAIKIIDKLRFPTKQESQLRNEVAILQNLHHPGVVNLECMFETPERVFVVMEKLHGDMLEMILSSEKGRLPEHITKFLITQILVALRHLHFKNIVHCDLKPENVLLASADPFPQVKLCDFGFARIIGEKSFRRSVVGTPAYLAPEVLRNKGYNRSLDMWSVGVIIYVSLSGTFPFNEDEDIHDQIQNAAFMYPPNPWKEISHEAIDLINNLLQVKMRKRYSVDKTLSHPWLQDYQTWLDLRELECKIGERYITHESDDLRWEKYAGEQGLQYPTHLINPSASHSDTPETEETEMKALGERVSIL
Method: Cells were lysed in buffer containing 20 mM HEPES 7.2, 150 mM NaCl, and 1% Triton X-100, supplemented with fresh protease and phosphatase inhibitors (Invitrogen, #78440), cleared by centrifugation at 12,000 × g for 10 min, and analyzed by BCA protein assay (Thermo Fisher Scientific, #23227). Equal protein amounts were loaded, separated by SDS-PAGE, electrotransferred to nitrocellulose membranes using the iBLOT2 system (Invitrogen), and blocked in 5% nonfat milk solution for 60 min. Membranes were probed with primary antibodies at 1:1000 dilution in 5% milk at 4 °C overnight. Signal was detected using appropriate horseradish peroxidase (HRP)-conjugated secondary antibodies at 1:10,000 in 5% milk at room temperature for 1–2 h. Bands were visualized by the Azure 600 western blot imaging system (Azure Biosystems). For in vitro ubiquitination assays performed with Me-Ub, bands were visualized by the Odyssey CLx Imager (LI‑COR) after incubating the blots with the IRDye 800CW (LI-COR) secondary antibodies at 1:10,000 in Intercept Blocking Buffer (LI-COR) at room temperature for 1–2 h. […]
The kinome selectivity of G6374 was assessed at 1 μM for 1 h versus a panel of 220 human kinases (SelectScreen Kinase Profiling Services, Thermo Fisher Scientific). […]

[4] = molecular target: T3, IRE1 E621A, E836A (Homo sapiens, UniProt O75460+P40337, E621A/E836A); experiment: NanoLuc signal IRE1 depletion, IRE1 E621A, E836A, HEK293T cells; conditions: E836A double mutant
T3 construct: N2731; host or cells: HEK293T
T3 sequence (O75460 19-977 E621A/E836A): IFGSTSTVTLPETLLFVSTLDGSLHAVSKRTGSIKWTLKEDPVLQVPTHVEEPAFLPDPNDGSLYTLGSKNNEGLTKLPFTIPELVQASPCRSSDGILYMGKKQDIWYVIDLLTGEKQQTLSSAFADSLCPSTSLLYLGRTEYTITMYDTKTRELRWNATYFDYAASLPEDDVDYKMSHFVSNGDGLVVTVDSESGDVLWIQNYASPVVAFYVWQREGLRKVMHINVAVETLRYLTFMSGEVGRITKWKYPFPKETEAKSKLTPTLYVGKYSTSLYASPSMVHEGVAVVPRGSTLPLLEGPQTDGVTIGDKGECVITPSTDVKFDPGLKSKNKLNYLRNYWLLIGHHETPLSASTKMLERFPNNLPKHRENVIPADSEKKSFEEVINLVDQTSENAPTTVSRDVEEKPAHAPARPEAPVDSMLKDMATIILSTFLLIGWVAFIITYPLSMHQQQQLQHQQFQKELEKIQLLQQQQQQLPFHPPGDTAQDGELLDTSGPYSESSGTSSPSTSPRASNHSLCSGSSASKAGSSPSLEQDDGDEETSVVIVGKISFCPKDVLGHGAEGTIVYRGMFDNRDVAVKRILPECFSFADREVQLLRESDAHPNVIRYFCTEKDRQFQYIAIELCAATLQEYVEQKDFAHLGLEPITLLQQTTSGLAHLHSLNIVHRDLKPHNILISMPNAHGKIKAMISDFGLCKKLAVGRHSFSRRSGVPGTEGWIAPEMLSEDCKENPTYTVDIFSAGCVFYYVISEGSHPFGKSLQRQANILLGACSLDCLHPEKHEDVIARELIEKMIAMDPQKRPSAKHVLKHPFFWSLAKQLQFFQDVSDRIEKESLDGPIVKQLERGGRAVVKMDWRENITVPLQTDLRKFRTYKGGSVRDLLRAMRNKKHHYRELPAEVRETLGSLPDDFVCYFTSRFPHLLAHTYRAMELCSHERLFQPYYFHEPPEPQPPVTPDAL
T3 sequence (P40337 whole entry): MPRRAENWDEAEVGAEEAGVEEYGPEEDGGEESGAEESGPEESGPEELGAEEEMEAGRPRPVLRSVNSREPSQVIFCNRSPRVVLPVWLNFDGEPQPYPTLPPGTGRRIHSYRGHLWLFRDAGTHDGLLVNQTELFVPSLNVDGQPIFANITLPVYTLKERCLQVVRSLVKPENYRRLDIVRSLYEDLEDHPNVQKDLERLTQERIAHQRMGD
T3 sequence (Q15369 whole entry partner): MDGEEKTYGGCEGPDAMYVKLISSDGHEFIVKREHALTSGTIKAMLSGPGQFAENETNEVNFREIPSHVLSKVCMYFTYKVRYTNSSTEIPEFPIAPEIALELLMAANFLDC
T3 sequence (Q15370 whole entry partner): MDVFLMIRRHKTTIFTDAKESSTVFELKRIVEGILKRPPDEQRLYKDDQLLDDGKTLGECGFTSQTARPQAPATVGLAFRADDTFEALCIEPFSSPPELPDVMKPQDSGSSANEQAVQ
T3 sequence (Q13617 whole entry partner): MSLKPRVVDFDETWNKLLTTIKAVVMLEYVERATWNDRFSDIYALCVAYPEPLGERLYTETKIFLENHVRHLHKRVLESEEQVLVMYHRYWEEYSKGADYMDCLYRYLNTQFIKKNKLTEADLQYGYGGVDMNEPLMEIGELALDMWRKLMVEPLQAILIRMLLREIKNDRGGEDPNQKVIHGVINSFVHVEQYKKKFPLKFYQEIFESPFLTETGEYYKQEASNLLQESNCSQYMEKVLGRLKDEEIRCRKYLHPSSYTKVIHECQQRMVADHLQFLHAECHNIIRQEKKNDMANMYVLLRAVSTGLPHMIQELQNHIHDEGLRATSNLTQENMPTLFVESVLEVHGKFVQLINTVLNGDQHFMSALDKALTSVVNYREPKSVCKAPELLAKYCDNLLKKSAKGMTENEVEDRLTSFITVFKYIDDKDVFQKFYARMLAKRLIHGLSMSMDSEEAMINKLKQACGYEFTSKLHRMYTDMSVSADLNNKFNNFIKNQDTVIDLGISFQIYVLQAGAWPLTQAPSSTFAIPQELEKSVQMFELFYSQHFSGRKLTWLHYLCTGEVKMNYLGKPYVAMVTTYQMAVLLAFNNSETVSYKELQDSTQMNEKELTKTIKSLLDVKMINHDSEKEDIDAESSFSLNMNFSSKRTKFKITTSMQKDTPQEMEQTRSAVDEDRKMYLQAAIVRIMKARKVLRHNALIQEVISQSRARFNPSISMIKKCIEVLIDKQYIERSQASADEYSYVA
T3 sequence (P62877 whole entry partner): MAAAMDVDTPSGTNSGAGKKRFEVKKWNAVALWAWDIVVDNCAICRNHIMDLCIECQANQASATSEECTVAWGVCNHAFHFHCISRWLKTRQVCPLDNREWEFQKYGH
Method: as §1

T1 sequence (P62877 whole entry): as the sequence (P62877 whole entry partner) above
T1 sequence (Q15370 whole entry, further chain): as the sequence (Q15370 whole entry partner) above
T1 sequence (Q15369 whole entry, further chain): as the sequence (Q15369 whole entry partner) above
T1 sequence (Q13617 whole entry, further chain): as the sequence (Q13617 whole entry partner) above
T1 sequence (P40337 whole entry): as the sequence (P40337 whole entry) above
T1 sequence (O75460 19-977 E621A/E836A): as the sequence (O75460 19-977 E621A/E836A) above

## Cc1ncsc1-c1ccc(CNC(=O)[C@@H]2C[C@@H](O)CN2C(=O)[C@@H](NC(=O)CCCCN2CCN([C@H]3CC[C@H](Nc4ncc5ccc(=O)n(C(C)C)c5n4)CC3)CC2)C(C)(C)C)cc1 [G6374]
[1]
  EC50: 0.05 ± 0.02 µM
[2]
  growth inhibition (cell confluency): concentration-dependent growth inhibition
[3]
  degradation of PKD1: no
[4]
  DC50: 0.11 ± 0.03 µM
[4]; HEK-293T
  Dmax: 67%
